Laboratory results published in the supplement of paper PMC10307832.

Columns and labels:
Assay in all cases: relative viability (nuclei count vs DMSO), 5 days (fraction); higher = more cells survive
[1] = compound: CCC1=CN=CN=C1N2CCN(CC2)CC3=NC4=C(N3)C=C(C=C4)C(F)(F)F + Cc1cc(Nc2cc(N3CCN(C)CC3)nc(Sc3ccc(NC(=O)C4CC4)cc3)n2)n[nH]1 [Tozasertib] (partner 0.1 µM)
Summary of the method: (§1)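 Lung cancer cell lines, seeded in 1536-well plates, were treated the following day by pin tool with a single drug or with five library-drug doses (not always all listed) in √10 steps on top of a fixed anchor-drug dose. Cells were fixed and nuclei stained in one step after 5 days, and nuclei were counted. Relative viability is the nuclei count for treated wells divided by that for vehicle wells, reported as medians of duplicate plates.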

[2] = compound: N=C1NC(=O)/C(=C/c2ccc(O)cc2)S1 [Mirin] + CC(C)C[C@H](NC(=O)[C@H](Cc1ccccc1)NC(=O)c1cnccn1)B(O)O [Bortezomib] (partner 0.002 µM)
Summary of the method: as §1

[3] = compound: N=C1NC(=O)/C(=C/c2ccc(O)cc2)S1 [Mirin] + CS(=O)(=O)N1CCN(Cc2cc3nc(-c4cccc5[nH]ncc45)nc(N4CCOCC4)c3s2)CC1 [Pictilisib] (partner 1 µM)
Summary of the method: as §1

[4] = compound: N=C1NC(=O)/C(=C/c2ccc(O)cc2)S1 [Mirin] + O=C(c1cc(Cc2n[nH]c(=O)c3ccccc23)ccc1F)N1CCN(C(=O)C2CC2)CC1 [Olaparib] (partner 8 µM)
Summary of the method: as §1

## NCI-H1734
[1]; first compound 0.04 µM
  relative viability: 0.267
[1]; first compound 0.1265 µM
  relative viability: 0.248
[1]; first compound 0.4 µM
  relative viability: 0.253
[1]; first compound 1.265 µM
  relative viability: 0.283
[1]; first compound 4 µM
  relative viability: 0.261
[2]; first compound 0.25 µM
  relative viability: 0.952
[2]; first compound 0.7906 µM
  relative viability: 0.778
[2]; first compound 2.5 µM
  relative viability: 0.987
[2]; first compound 7.906 µM
  relative viability: 0.831
[2]; first compound 25 µM
  relative viability: 0.793
[3]; first compound 0.25 µM
  relative viability: 0.427
[3]; first compound 0.7906 µM
  relative viability: 0.376
[3]; first compound 2.5 µM
  relative viability: 0.445
[3]; first compound 7.906 µM
  relative viability: 0.444
[3]; first compound 25 µM
  relative viability: 0.394
[4]; first compound 0.25 µM
  relative viability: 0.538
[4]; first compound 0.7906 µM
  relative viability: 0.582
[4]; first compound 2.5 µM
  relative viability: 0.662
[4]; first compound 7.906 µM
  relative viability: 0.556
[4]; first compound 25 µM
  relative viability: 0.461

## NCI-H596
[1]; first compound 0.04 µM
  relative viability: 0.921
[1]; first compound 0.1265 µM
  relative viability: 0.949
[1]; first compound 0.4 µM
  relative viability: 0.758
[1]; first compound 4 µM
  relative viability: 1.04
[2]; first compound 0.25 µM
  relative viability: 1.12
[2]; first compound 2.5 µM
  relative viability: 0.982
[2]; first compound 7.906 µM
  relative viability: 1
[2]; first compound 25 µM
  relative viability: 0.905
[3]; first compound 0.25 µM
  relative viability: 0.447
[3]; first compound 0.7906 µM
  relative viability: 0.391
[3]; first compound 2.5 µM
  relative viability: 0.43
[3]; first compound 7.906 µM
  relative viability: 0.361
[3]; first compound 25 µM
  relative viability: 0.345
[4]; first compound 0.25 µM
  relative viability: 0.661
[4]; first compound 0.7906 µM
  relative viability: 0.775
[4]; first compound 2.5 µM
  relative viability: 0.67
[4]; first compound 7.906 µM
  relative viability: 0.745
[4]; first compound 25 µM
  relative viability: 0.881

## NCI-H1650
[1]; first compound 0.04 µM
  relative viability: 0.482
[1]; first compound 0.1265 µM
  relative viability: 0.471
[1]; first compound 0.4 µM
  relative viability: 0.273
[1]; first compound 4 µM
  relative viability: 0.331
[2]; first compound 0.25 µM
  relative viability: 0.196
[2]; first compound 0.7906 µM
  relative viability: 0.2
[2]; first compound 2.5 µM
  relative viability: 0.216
[2]; first compound 7.906 µM
  relative viability: 0.208
[2]; first compound 25 µM
  relative viability: 0.191
[3]; first compound 0.25 µM
  relative viability: 0.576
[3]; first compound 0.7906 µM
  relative viability: 0.494
[3]; first compound 2.5 µM
  relative viability: 0.592
[3]; first compound 7.906 µM
  relative viability: 0.447
[3]; first compound 25 µM
  relative viability: 0.385
[4]; first compound 0.25 µM
  relative viability: 0.789
[4]; first compound 0.7906 µM
  relative viability: 0.929
[4]; first compound 2.5 µM
  relative viability: 0.817
[4]; first compound 7.906 µM
  relative viability: 0.755
[4]; first compound 25 µM
  relative viability: 0.732

## NCI-H1355
[1]; first compound 0.04 µM
  relative viability: 0.566
[1]; first compound 0.1265 µM
  relative viability: 0.513
[1]; first compound 0.4 µM
  relative viability: 0.495
[1]; first compound 1.265 µM
  relative viability: 0.413
[1]; first compound 4 µM
  relative viability: 0.421
[2]; first compound 0.25 µM
  relative viability: 1.3
[2]; first compound 0.7906 µM
  relative viability: 1.19
[2]; first compound 2.5 µM
  relative viability: 1.16
[2]; first compound 7.906 µM
  relative viability: 1.23
[2]; first compound 25 µM
  relative viability: 1.38
[3]; first compound 0.25 µM
  relative viability: 0.48
[3]; first compound 0.7906 µM
  relative viability: 0.254
[3]; first compound 2.5 µM
  relative viability: 0.419
[3]; first compound 7.906 µM
  relative viability: 0.427
[3]; first compound 25 µM
  relative viability: 0.505
[4]; first compound 0.25 µM
  relative viability: 0.681
[4]; first compound 0.7906 µM
  relative viability: 0.747
[4]; first compound 2.5 µM
  relative viability: 0.692
[4]; first compound 7.906 µM
  relative viability: 0.755
[4]; first compound 25 µM
  relative viability: 0.745

## NCI-H1915
[1]; first compound 0.04 µM
  relative viability: 0.458
[1]; first compound 0.1265 µM
  relative viability: 0.412
[1]; first compound 0.4 µM
  relative viability: 0.429
[1]; first compound 1.265 µM
  relative viability: 0.356
[1]; first compound 4 µM
  relative viability: 0.356
[2]; first compound 0.25 µM
  relative viability: 1.03
[2]; first compound 2.5 µM
  relative viability: 1.01
[2]; first compound 7.906 µM
  relative viability: 0.931
[2]; first compound 25 µM
  relative viability: 0.945
[3]; first compound 0.25 µM
  relative viability: 0.98
[3]; first compound 2.5 µM
  relative viability: 1.04
[3]; first compound 7.906 µM
  relative viability: 0.916
[3]; first compound 25 µM
  relative viability: 0.935
[4]; first compound 0.25 µM
  relative viability: 0.283
[4]; first compound 0.7906 µM
  relative viability: 0.221
[4]; first compound 2.5 µM
  relative viability: 0.272
[4]; first compound 7.906 µM
  relative viability: 0.223
[4]; first compound 25 µM
  relative viability: 0.182

## BEN
[1]; first compound 0.04 µM
  relative viability: 0.462
[1]; first compound 0.1265 µM
  relative viability: 0.528
[1]; first compound 0.4 µM
  relative viability: 0.559
[1]; first compound 1.265 µM
  relative viability: 0.433
[1]; first compound 4 µM
  relative viability: 0.477
[2]; first compound 0.25 µM
  relative viability: 0.638
[2]; first compound 0.7906 µM
  relative viability: 0.779
[2]; first compound 2.5 µM
  relative viability: 0.967
[2]; first compound 7.906 µM
  relative viability: 0.625
[2]; first compound 25 µM
  relative viability: 0.548
[3]; first compound 0.25 µM
  relative viability: 0.484
[3]; first compound 0.7906 µM
  relative viability: 0.656
[3]; first compound 2.5 µM
  relative viability: 0.619
[3]; first compound 7.906 µM
  relative viability: 0.416
[3]; first compound 25 µM
  relative viability: 0.312
[4]; first compound 0.25 µM
  relative viability: 0.958
[4]; first compound 0.7906 µM
  relative viability: 0.987
[4]; first compound 2.5 µM
  relative viability: 1.21
[4]; first compound 7.906 µM
  relative viability: 0.962
[4]; first compound 25 µM
  relative viability: 0.638

## NCI-H322M
[1]; first compound 0.04 µM
  relative viability: 0.485
[1]; first compound 0.1265 µM
  relative viability: 0.446
[1]; first compound 0.4 µM
  relative viability: 0.485
[1]; first compound 1.265 µM
  relative viability: 0.469
[1]; first compound 4 µM
  relative viability: 0.488
[2]; first compound 0.25 µM
  relative viability: 1.22
[2]; first compound 0.7906 µM
  relative viability: 1.29
[2]; first compound 2.5 µM
  relative viability: 1.41
[2]; first compound 7.906 µM
  relative viability: 1.42
[2]; first compound 25 µM
  relative viability: 1.24
[3]; first compound 0.25 µM
  relative viability: 0.5
[3]; first compound 0.7906 µM
  relative viability: 0.419
[3]; first compound 2.5 µM
  relative viability: 0.492
[3]; first compound 7.906 µM
  relative viability: 0.567
[3]; first compound 25 µM
  relative viability: 0.583
[4]; first compound 0.25 µM
  relative viability: 0.81
[4]; first compound 0.7906 µM
  relative viability: 0.816
[4]; first compound 2.5 µM
  relative viability: 0.726
[4]; first compound 7.906 µM
  relative viability: 0.712
[4]; first compound 25 µM
  relative viability: 0.583

## HOP-62
[1]; first compound 0.04 µM
  relative viability: 0.43
[1]; first compound 0.1265 µM
  relative viability: 0.362
[1]; first compound 0.4 µM
  relative viability: 0.39
[1]; first compound 1.265 µM
  relative viability: 0.381
[1]; first compound 4 µM
  relative viability: 0.39
[2]; first compound 0.25 µM
  relative viability: 0.727
[2]; first compound 0.7906 µM
  relative viability: 0.867
[2]; first compound 2.5 µM
  relative viability: 0.725
[2]; first compound 25 µM
  relative viability: 0.836
[3]; first compound 0.25 µM
  relative viability: 0.554
[3]; first compound 0.7906 µM
  relative viability: 0.33
[3]; first compound 2.5 µM
  relative viability: 0.764
[3]; first compound 25 µM
  relative viability: 0.496
[4]; first compound 0.25 µM
  relative viability: 0.548
[4]; first compound 0.7906 µM
  relative viability: 0.409
[4]; first compound 2.5 µM
  relative viability: 0.219
[4]; first compound 7.906 µM
  relative viability: 0.381
[4]; first compound 25 µM
  relative viability: 0.519

## HCC-366
[1]; first compound 0.04 µM
  relative viability: 0.138
[1]; first compound 0.1265 µM
  relative viability: 0.148
[1]; first compound 0.4 µM
  relative viability: 0.131
[1]; first compound 1.265 µM
  relative viability: 0.143
[1]; first compound 4 µM
  relative viability: 0.0757
[2]; first compound 0.25 µM
  relative viability: 1.06
[2]; first compound 0.7906 µM
  relative viability: 0.986
[2]; first compound 2.5 µM
  relative viability: 1.09
[2]; first compound 7.906 µM
  relative viability: 0.981
[2]; first compound 25 µM
  relative viability: 0.977
[3]; first compound 0.25 µM
  relative viability: 0.169
[3]; first compound 0.7906 µM
  relative viability: 0.17
[3]; first compound 2.5 µM
  relative viability: 0.158
[3]; first compound 7.906 µM
  relative viability: 0.122
[3]; first compound 25 µM
  relative viability: 0.0892
[4]; first compound 0.25 µM
  relative viability: 0.377
[4]; first compound 0.7906 µM
  relative viability: 0.376
[4]; first compound 2.5 µM
  relative viability: 0.346
[4]; first compound 7.906 µM
  relative viability: 0.426
[4]; first compound 25 µM
  relative viability: 0.335
